This is an account of results in US20060276407A1, “Methods of treating hepatitis C virus” (Schering Corporation, priority 2005, published 2006).

The assay concerns HCV-RNA viral load. Briefly: Effect on HCV-RNA viral load, 14 days dosing of HCV positive genotype 1 interferon non responders (Example 3). It is filed as in vivo. The protocol: Multiple escalating doses of compound of Formula Ia were administered for 14 days to HCV positive subjects who were genotype 1 Interferon-a (with or without ribavirin) non responders. In a randomized, placebo controlled, third party blind study, multiple doses of 100 mg BID, 200 mg BID, 400 mg BID, 400 mg TID, and 600 mg TID of compound of Formula Ia or placebo in a 3:1 ratio with or without food were evaluated. […]
Serial HCV-RNA data were evaluated for antiviral activity and for the change from baseline in the serum HCV RNA levels.

`CC(C)(C)NC(=O)N[C@H](C(=O)N1C[C@H]2[C@@H]([C@H]1C(=O)NC(CC1CCC1)C(=O)C(N)=O)C2(C)C)C(C)(C)C` (mixture of isomers) [Formula Ia, (1 R, 5S)-N-[3-Amino-1-(Cyclobutylmethyl)-2,3-Dioxopropyl]-3-[2(S)-[[[(1,1-Dimethylethyl)Amino]Carbonyl]Amino]-3,3-Dimethyl-1-Oxobutyl]-6,6-Dimethyl-3-Azabicyclo[3.1.0]Hexan-2(S)-Carboxamide]: the “Viral load (HCV-RNA) reduction from baseline, average minimum reduction” value (400 mg TID, 14 days) was found to be 2 logs. Moreover, under “all patients”, the “HCV-RNA following discontinuation of the 14-day treatment” value was “returned to baseline levels”.
